#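 The compound was tested at five concentrations on cells cultured in 96-well plates, with a 48-hour exposure period. GI50 marks 50% less growth. TGI: concentration producing complete growth inhibition.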
# Test system: MDA-MB-468 breast
# Test: NCI anticancer screen, dose series, 48 h
SMILES,GI50 [µM],TGI [µM]
CC/C(=C(/c1ccc(/C=C/C(=O)O)cc1)c1ccc2[nH]ncc2c1)c1ccc(F)cc1Cl,15.1,42.8
COc1cc(OC)c(/C=C/C(=O)c2c(N)cc(OC)cc2OC)c(OC)c1,0.322,7.26
CS(=O)(=O)c1ccc2c(c1)c1c(n2C(=O)c2ccc(Cl)cc2)CCCC1,2.09,> 100
Oc1ccc(-c2[nH]c3ccccc3c2-c2nc3ccccc3o2)cc1,1.36,5.98
Cc1ccc(NC2=CC(=O)C(=O)c3ccccc32)c(C)c1,2.56,8.61
Nc1n[nH]c2ccc([C@@H]3Nc4c(F)cc5[nH]ncc5c4[C@H]4C5CCC(C5)[C@@H]34)cc12 (some centres not stated),0.116,0.621
OC(c1cc(-c2ccc(Cl)cc2)nc2c(Cl)cccc12)C1CCCCN1 (configuration not stated),1.74,3.26
O=C(Nc1nc2c(s1)CCc1c-2c(Br)n(Cc2ccccc2)c1Br)c1ccccc1,8.28,> 100
COC(=O)C1=Nc2ccc(F)cc2/C1=C/c1sc(=S)[nH]c1O,0.354,2.95
CCN(CC)CCCNc1c2ccc(Cl)cc2nc2ccc(OC)cc12,0.0711,2.71
CCN(CC)CCS(=O)(=O)CCNc1ccnc2cc(Cl)ccc12,0.711,1.91
CCOC(=O)c1cc2cc(OCc3ccccc3)ccc2[nH]1,> 100,> 100
CCN(CC)C(=S)SSCCO,15,28.9
CCN(CC)C(=O)CCCCCn1c2ccccc2c2c3c(c4c5ccccc5[nH]c4c21)C(=O)N(O)C3=O,5.79,> 100
CCN(CC)Cc1cc(Nc2cc(C(F)(F)F)c(C#N)c3nc4ccccc4n23)ccc1O,0.228,3.69
Cc1ccc(O)cc1Nc1ccnc2cc(-c3ccccn3)ccc12,0.736,3.57
CCc1ccc(C2=NN(c3ccc(S(C)(=O)=O)cc3)C(=O)CC2)cc1,4.43,43.7
CCOc1cc2c(cc1O)CC[C@@H]1[C@@H]2CC[C@]2(C)[C@@H](O)CC[C@@H]12,4.96,31.8
Oc1c(I)cc(Cl)c2cccnc12,2.05,5.13
O=S(=O)(NCCCNc1nccc(-c2c(-c3cccc(F)c3)nc3occn23)n1)c1cccc2ccccc12,4.86,> 100
C=CC[PH+](c1ccccc1)c1ccccc1.C=CC[PH+](c1ccccc1)c1ccccc1.[Pt+2].[S-]c1ncccn1.[S-]c1ncccn1,3.06,13.9
Nc1ccn([C@@H]2S[C@H](CO)[C@@H](O)[C@@H]2F)c(=O)n1,3.25,> 88.6

SMILES,GI50 [µM],TGI [µM]
CC1(C)N=C(N)N=C(N)N1c1ccc(OCCCCNC(=O)Nc2cccc(S(=O)(=O)F)c2)c(Cl)c1,3.47,> 100
C=C(C)[C@@H]1CC[C@]2(C(=O)n3ccnc3)CC[C@]3(C)[C@H](CC[C@@H]4[C@@]5(C)CCCNC(C)(C)[C@@H]5CC[C@]43C)[C@@H]12,1.9,3.53
CN(C)c1ccc2c(c1)OC(N)=C(C#N)C2c1ccc2c(c1)CCCN2C (configuration not stated),1.62,42.5
Cc1ccc(C(=O)N2C/C(=C/c3ccccc3)C(=O)/C(=C/c3ccccc3)C2)cc1,2.23,10.7
CCc1c(C#N)c(SC(C(N)=O)c2ccccc2)nc(N2CCC(N)CC2)c1C#N (configuration not stated),3.53,16.4
N#Cc1cccc(C2C3=C(COC3=O)N(CCO)c3cc4c(cc32)CCC4)c1 (configuration not stated),0.115,
CC(C)C/C(=N\NC(=O)c1ccncc1)c1cc(Cl)ccc1O,0.288,1.97
CN(C)CCS(=O)(=O)Nc1cc(-c2ccc3ncnc(Nc4ccc(F)c(Cl)c4)c3c2)cnc1Cl,0.133,0.449
O=C(/C=C/c1cccc(Oc2ccc(Cl)cc2)c1)c1ccccc1,101,338
Cc1n(Cc2ccc3ccccc3n2)cc[n+]1Cc1ccc2ccccc2c1,0.27,1.58
COc1cc(/C=N/Nc2ccnc3cc(Cl)ccc23)cc(OC)c1O,1.65,3.28
Cc1cc(-c2ccco2)cc(C)c1/C=C/c1cncc(-c2nn[nH]n2)c1,> 25,> 25
O=C1C2C(C(=O)N1CC[Se][Se]CCN1C(=O)C3C(C1=O)[C@H]1C=C[C@@H]3C1)[C@H]1C=C[C@@H]2C1 (some centres not stated),0.324,1.32
Cc1ccccc1CNc1c2ccccc2nc2ccccc12,1.88,4.89
COc1ncc2cc1NS(=O)(=O)c1cccc(c1)C(=O)NCC1=CC=C(S1)c1ncnc3c1SC2=C3C,0.072,0.234
N=C(N)c1ccc(OCCCCCOc2ccc(C(=N)N)cc2)cc1,0.466,5.83
Nc1c(C(=O)Nc2ccccn2)sc2nc3c(cc12)CCCCCC3,0.435,7.13
O=C(Nc1cccc(-n2cc(-c3ccncc3)c(-c3ccc(O)c(Cl)c3)n2)c1)Nc1ccc(Cl)c(Cl)c1,1.96,6.65
CCN(CCNc1ccc(C)c2sc3cc(Cl)ccc3c(=O)c12)CC(C)(C)O,3.49,10.4
Cc1ccc(-c2nc(C(Cl)Cl)nc3cc(C)nn23)cc1,0.259,0.957
Cc1nn2c(-c3nc4cc(Cl)c(Cl)cc4[nH]3)c(-c3ccc(F)cc3)nc2s1,> 29.1,> 100
CN(c1ccc(NC(=O)NCCN2CCOCC2)cc1)c1ccnc(Nc2ccc(CS(C)(=O)=O)cc2)n1,8.21,> 25

# From PubChem BioAssay (NCI)
